# Entries after “also recorded” stand apart in the source; their conditions may differ. Read-outs that look alike come from different tables or passages of the source.
# Key:
# CDK1/CycE1 = CDK1/CycE1 (Homo sapiens, UniProt P06493); experiment: Kinase profiling; format: biochemical
# AKT1 aa1-480 = molecular target: T1, AKT1 aa1-480 (Homo sapiens, UniProt P31749); experiment: Kinase profiling; format: biochemical; details: 10 semi-logarithmic dilutions from 50 μM, singlicate
# T1 construct: AKT1 aa1-480
# T1 sequence (P31749 whole entry, the tested form may be a part): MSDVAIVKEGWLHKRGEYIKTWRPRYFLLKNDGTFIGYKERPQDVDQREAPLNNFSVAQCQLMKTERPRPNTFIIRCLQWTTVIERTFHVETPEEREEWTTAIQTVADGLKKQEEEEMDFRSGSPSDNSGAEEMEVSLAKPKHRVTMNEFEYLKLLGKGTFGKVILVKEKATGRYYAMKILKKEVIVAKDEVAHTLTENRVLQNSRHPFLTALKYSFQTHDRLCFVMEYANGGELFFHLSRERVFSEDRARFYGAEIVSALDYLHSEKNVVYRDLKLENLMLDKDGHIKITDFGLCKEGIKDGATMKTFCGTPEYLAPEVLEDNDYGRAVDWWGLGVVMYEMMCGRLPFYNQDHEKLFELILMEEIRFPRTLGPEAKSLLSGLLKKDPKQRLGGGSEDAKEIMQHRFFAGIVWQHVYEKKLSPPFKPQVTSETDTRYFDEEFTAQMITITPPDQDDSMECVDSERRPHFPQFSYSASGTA
# [1] = system: MDA-MB-231 human breast cancer cells; experiment: Cell cycle analysis (DNA content, flow cytometry); format: cell-based; details: GI50 concentration; FIG. 1
# Description: FIG. 1 depicts DNA content profiles of MDA-MB-231 human breast cancer cells treated with subject compounds or commercial CDK inhibitors, showing the percentage of cells at the different cell cycle phases after 48 hours of the treatments indicated. (n=6 technical replicates).
# Cells were collected by trypsinization, washed with PBS and fixed with cold 70% ethanol. Cells were treated with 250 μg/ml RNase (Qiagen) for 30 minutes at 37° C. and stained with 10 μg/ml Propidium Iodide (Sigma). Cell cycle was analyzed by flow cytometry using a LSR Fortessa Analyzer. Cell cycle profiles were generated and analyzed with FlowJo software.
# Cells were collected by tripsinization at several times after treatment with the indicated compounds and, then, fixed with cold 70% Ethanol. DNA content was determined by staining with propidium iodide (10 μg/ml, Sigma Aldrich). Data acquisition was performed with a LSR Fortessa analyzer (BD Biosciences) and analysed using FlowJo software.
# PCTAIRE1/CycY = PCTAIRE1/CycY (Homo sapiens, UniProt Q00536); experiment: Kinase profiling; format: biochemical; details: 10 semi-logarithmic dilutions from 50 μM, singlicate
# Sequence of PCTAIRE1/CycY (Q00536 whole entry, species assumed): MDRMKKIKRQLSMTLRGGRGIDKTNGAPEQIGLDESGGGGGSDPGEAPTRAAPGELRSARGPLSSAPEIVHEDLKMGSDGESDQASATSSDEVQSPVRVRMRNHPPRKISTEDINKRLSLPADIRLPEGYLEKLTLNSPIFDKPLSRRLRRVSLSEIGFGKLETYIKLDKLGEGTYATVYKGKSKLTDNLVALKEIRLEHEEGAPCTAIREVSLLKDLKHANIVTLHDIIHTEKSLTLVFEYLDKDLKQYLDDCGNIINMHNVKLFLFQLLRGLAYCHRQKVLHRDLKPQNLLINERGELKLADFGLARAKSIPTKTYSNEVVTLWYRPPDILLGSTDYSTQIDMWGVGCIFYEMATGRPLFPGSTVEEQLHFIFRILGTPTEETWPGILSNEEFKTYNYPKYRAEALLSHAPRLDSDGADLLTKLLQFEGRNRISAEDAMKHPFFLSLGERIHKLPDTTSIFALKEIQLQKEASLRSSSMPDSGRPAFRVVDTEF
# Sequence of PCTAIRE1/CycY (Q8ND76 whole entry partner, species assumed): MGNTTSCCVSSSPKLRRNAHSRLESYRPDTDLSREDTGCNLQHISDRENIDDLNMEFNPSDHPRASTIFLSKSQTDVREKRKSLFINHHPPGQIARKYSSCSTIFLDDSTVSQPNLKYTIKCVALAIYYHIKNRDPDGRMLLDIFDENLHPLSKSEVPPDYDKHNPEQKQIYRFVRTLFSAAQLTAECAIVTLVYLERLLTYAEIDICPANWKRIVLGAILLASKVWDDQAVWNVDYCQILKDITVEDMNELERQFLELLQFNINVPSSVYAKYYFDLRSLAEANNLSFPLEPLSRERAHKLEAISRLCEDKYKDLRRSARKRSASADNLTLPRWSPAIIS
# CDK9/CycT1 = CDK9/CycT1 (Homo sapiens, UniProt P50750); experiment: Kinase profiling; format: biochemical; details: 10 semi-logarithmic dilutions from 50 μM, singlicate
# Sequence of CDK9/CycT1 (P50750 whole entry): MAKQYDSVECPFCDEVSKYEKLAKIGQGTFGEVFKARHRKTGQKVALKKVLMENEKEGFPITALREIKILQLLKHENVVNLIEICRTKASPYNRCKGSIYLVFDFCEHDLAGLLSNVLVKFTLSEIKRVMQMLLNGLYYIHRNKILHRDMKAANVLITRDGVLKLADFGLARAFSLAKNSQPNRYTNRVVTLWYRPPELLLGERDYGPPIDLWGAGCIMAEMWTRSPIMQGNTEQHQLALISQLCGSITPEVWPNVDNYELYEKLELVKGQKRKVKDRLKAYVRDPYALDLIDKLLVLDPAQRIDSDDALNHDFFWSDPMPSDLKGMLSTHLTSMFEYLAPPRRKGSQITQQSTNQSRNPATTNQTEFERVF
# Sequence of CDK9/CycT1 (O60563 whole entry partner): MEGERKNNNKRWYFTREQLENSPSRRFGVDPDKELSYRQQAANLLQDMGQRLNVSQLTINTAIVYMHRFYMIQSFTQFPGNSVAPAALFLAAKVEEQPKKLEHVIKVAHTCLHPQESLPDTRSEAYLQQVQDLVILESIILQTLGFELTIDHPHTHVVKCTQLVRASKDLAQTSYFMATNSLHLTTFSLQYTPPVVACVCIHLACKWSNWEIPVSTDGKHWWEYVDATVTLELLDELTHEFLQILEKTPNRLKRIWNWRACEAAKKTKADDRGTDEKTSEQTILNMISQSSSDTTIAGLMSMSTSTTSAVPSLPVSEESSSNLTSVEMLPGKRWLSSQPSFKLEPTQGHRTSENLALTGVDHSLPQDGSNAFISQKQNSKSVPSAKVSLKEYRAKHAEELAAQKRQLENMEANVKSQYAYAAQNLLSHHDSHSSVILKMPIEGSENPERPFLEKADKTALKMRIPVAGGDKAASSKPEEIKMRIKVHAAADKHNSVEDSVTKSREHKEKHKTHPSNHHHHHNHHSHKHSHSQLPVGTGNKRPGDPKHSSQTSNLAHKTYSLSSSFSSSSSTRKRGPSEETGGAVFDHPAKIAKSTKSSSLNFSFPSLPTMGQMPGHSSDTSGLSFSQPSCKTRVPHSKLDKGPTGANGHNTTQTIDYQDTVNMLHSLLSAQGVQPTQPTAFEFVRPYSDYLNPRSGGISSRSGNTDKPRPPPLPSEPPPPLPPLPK
# DYRK2 = molecular target: T2, DYRK2 (Homo sapiens, UniProt Q92630); experiment: Kinase profiling; format: biochemical; details: 10 semi-logarithmic dilutions from 50 μM, singlicate; read-out: IC50 DYRK2
# T2 sequence (Q92630 1-601): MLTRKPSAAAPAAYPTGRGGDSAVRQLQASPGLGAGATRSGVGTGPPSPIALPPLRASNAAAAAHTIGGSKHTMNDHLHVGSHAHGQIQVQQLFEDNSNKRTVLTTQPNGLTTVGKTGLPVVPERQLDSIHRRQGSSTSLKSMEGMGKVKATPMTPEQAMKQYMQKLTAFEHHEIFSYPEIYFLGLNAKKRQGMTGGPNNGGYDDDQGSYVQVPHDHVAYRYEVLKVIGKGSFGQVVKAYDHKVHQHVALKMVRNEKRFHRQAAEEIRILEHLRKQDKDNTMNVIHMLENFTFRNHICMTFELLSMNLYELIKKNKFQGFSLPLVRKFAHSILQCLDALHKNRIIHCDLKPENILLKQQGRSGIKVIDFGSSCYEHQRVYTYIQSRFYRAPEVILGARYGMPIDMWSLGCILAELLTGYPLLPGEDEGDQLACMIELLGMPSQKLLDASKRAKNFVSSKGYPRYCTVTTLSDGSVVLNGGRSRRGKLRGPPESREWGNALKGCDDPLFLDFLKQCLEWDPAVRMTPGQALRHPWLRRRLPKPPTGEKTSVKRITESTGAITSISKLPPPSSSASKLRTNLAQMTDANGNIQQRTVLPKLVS
# CDK4/CycD1 = CDK4/CycD1 (Homo sapiens, UniProt P11802); experiment: Kinase profiling; format: biochemical; details: 10 semi-logarithmic dilutions from 50 μM, singlicate
# CDK1/CycB1 = CDK1/CycB1 (Homo sapiens, UniProt P06493); experiment: Kinase profiling; format: biochemical
# Sequence of CDK1/CycB1 (P06493 whole entry): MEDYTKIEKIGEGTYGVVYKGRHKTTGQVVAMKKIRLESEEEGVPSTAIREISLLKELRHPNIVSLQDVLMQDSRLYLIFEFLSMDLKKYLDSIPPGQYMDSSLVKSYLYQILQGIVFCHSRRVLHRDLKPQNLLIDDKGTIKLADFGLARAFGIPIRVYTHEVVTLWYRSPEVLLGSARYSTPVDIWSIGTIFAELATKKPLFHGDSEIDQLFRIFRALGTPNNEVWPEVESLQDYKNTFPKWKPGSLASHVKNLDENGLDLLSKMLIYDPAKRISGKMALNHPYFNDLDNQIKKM
# Sequence of CDK1/CycB1 (P14635 whole entry partner): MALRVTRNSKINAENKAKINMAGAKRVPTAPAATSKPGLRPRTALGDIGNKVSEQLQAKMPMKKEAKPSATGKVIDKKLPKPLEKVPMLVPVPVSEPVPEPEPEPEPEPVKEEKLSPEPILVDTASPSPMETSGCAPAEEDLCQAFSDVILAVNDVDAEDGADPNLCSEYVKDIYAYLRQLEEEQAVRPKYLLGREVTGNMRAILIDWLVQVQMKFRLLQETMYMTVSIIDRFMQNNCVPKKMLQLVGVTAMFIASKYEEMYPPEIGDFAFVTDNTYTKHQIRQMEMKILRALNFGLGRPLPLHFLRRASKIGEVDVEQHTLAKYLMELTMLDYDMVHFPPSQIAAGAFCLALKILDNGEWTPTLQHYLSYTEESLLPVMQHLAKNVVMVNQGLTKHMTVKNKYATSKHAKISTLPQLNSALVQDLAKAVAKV
# CDC7/DBF4 = CDC7/DBF4 (Homo sapiens, UniProt O00311); experiment: Kinase profiling; format: biochemical; details: 10 semi-logarithmic dilutions from 50 μM, singlicate; read-out: IC50 CDC7/DBF4
# [2] = system: H460 lung carcinoma cell line; experiment: Proliferation assay: determination of GI50; format: cell-based, human; details: Table 3, 48 h, n = 2 independent experiments
# Description: (§1) The following human tumor cell lines, all Retinoblastoma (Rb)-proficient, were used in this study: MDA-MB231 (breast cancer), MDA-MB453 (breast cancer), U87MG (glioblastoma) and H460 (lung cancer). MDA-MB468 (breast cancer) and SW1783 (glioblastoma) Rb-deficient cells were also included in the study, as well as the MCF10A non-transformed mammary epithelial cell line. Tumor cell lines were maintained in DMEM or RPMI-1640 medium, depending on the cell line, supplemented with 10% FBS. MCF10A cells were grown in complete mammary epithelial growth medium (MEGM, Lonza). Cell lines were authenticated by short tandem repeat (STR) loci profiling with the GenePrint® 10 System (Promega).
# (§2) All human cancer cell lines (Table 2) were obtained from the American Type Culture Collection, and were maintained in DMEM (Hyclone) or RPMI-1640 medium (Sigma) supplemented with 10% fetal bovine serum (Sigma). Non-transformed MCF10 cell line was maintained in MEGM Mammary Epithelial Cell Growth Medium (Lonza). Immortalized mouse embryonic fibroblasts (MEFs) were maintained in DMEM with 10% fetal bovine serum.
# (§3) 48 h later cells were fixed with PFA 4% for 15 minutes, stained with 10 μg/ml Hoechst 33342 (Molecular Probes, Thermo Fisher) for 30 minutes and washed twice with PBS. Cells were imaged in a high content screening system (Opera Phoenix™, Perkin Elmer) using a 20× dry objective (30 fields/well). Cell counts were determined by the Opera software (Perkin Elmer) and data were further processed with SPSS software. GI50 was calculated by estimating the absolute IC50 using dose-response inhibition tool in Prism6 (Graphpad Software Inc.).
# [3] = system: MCF10 non-transformed mammary epithelial cell line; experiment: Proliferation assay: determination of GI50; format: cell-based, human; details: Table 3, 48 h, n = 2 independent experiments
# Description: as §1, §2, §3
# [4] = system: U87MG glioblastoma cell line; experiment: Proliferation assay: determination of GI50; format: cell-based, human
# Description: as §1, §2, §3
# [5] = system: MDA-MB-231 breast carcinoma cell line; experiment: Proliferation assay: determination of GI50; format: cell-based, human
# Description: as §1, §2, §3
# CDK19/CycC = CDK19/CycC (Homo sapiens, UniProt Q9BWU1); experiment: Kinase profiling; format: biochemical; details: 10 semi-logarithmic dilutions from 50 μM, singlicate
# Sequence of CDK19/CycC (Q9BWU1 whole entry): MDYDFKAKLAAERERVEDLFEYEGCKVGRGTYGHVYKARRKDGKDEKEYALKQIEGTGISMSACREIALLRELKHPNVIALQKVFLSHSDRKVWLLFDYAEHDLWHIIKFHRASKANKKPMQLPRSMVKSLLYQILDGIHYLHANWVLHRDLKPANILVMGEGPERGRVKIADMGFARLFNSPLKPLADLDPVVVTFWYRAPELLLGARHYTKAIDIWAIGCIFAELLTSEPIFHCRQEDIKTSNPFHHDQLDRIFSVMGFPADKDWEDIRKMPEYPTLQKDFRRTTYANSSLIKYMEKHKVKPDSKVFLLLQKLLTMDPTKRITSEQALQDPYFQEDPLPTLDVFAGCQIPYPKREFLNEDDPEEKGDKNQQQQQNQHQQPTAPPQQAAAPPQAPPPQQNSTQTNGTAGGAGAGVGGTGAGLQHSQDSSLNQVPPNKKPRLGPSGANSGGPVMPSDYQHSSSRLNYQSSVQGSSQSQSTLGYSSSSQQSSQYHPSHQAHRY
# Sequence of CDK19/CycC (P24863 whole entry partner): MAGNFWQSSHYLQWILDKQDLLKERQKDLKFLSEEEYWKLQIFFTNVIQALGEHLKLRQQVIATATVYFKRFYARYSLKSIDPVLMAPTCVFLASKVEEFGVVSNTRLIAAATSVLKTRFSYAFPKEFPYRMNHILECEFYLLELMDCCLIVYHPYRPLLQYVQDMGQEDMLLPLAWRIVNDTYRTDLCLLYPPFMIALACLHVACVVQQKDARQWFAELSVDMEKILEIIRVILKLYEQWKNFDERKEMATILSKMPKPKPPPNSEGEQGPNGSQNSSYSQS
# CDK2/CycE1 = CDK2/CycE1 (Homo sapiens, UniProt P24941); experiment: Kinase profiling; format: biochemical
# DYRK1A = DYRK1A (Homo sapiens, UniProt Q13627); experiment: Kinase profiling; format: biochemical; details: 10 semi-logarithmic dilutions from 50 μM, singlicate
# [6] = 10 semi-logarithmic dilutions from 50 μM, singlicate
# [7] = Homo sapiens, U-87 MG, Table 3, 48 h, n = 3 independent experiments, read-out: GI50 U87MG
# [8] = Homo sapiens, MDA-MB-231, Table 3, 48 h, n = 3 independent experiments, read-out: GI50 MDA-MB231
# Sequence of CDK1/CycE1 (P06493 whole entry, the tested form may be a part): as the sequence (P06493 whole entry) above
# Sequence of CDK1/CycE1 (P24864 whole entry partner, the tested form may be a part): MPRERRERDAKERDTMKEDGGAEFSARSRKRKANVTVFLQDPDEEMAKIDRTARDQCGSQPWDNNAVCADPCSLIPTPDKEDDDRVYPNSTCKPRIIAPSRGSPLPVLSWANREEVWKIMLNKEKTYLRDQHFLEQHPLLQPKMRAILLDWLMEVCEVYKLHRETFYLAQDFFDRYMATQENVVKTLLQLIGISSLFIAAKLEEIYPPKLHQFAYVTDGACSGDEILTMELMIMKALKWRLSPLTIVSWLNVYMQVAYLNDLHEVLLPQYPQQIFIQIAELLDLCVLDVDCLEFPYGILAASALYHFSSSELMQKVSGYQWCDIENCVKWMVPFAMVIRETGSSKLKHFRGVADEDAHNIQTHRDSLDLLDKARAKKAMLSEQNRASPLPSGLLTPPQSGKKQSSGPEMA
compound,measurement,setting,value
"CC(O)CCC1CCN(c2ccc(Nc3ncc4ccc(=O)n([C@@H]5CC6CCC5C6)c4n3)cc2)CC1 (stereo partly drawn) [PS004, 8-((2R)-bicyclo[2.2.1]heptan-2-yl)-2-((4-(4-(3-hydroxybutyl)piperidin-1-yl)phenyl)amino)pyrido[2,3-d]pyrimidin-7(8H)-one]",IC50,CDK1/CycE1; [6],3.32 µM
same,IC50,AKT1 aa1-480,> 50 µM
same,cell cycle arrest by DNA content,[1],accumulation of cells both in G1 and G2/M phases; also recorded: arresting cells in G1/G2/M cell cycle phases
same,IC50,PCTAIRE1/CycY,13.5 µM
same,IC50,CDK9/CycT1,0.264 µM
same,IC50,DYRK2,40.5 µM
same,IC50,CDK4/CycD1,0.0353 µM
same,IC50,CDK1/CycB1; [6],16.4 µM
same,IC50,CDC7/DBF4,9.9 µM
same,GI50,"[2]; Homo sapiens, NCI-H460",1.4 µM
same,GI50,"[3]; Homo sapiens, MCF10",1.43 µM
same,GI50,[4]; [7],4.5 µM
same,GI50,"[4]; Homo sapiens, U-87 MG, Table 4, n = 4, read-out: Growth inhibition GI50, Glioblastoma pRB Wild-Type U87MG",5.5 µM
same,GI50,[5]; [8],3.6 µM
same,GI50,"[5]; Homo sapiens, MDA-MB-231, Table 4, n = 4, read-out: Growth inhibition GI50, Breast cancer pRB Wild-Type MDA-MB-231",3.5 µM
same,IC50,CDK19/CycC,9.6 µM
same,IC50,CDK2/CycE1; [6],0.303 µM
same,IC50,DYRK1A,> 50 µM
"O=c1ccc2cnc(Nc3ccc(N4CCC(CCCO)CC4)c(F)c3)nc2n1[C@@H]1CC2CCC1C2 (stereo partly drawn) [PS003, 8-((2R)-bicyclo[2.2.1]heptan-2-yl)-2-((3-fluoro-4-(4-(3-hydroxypropyl)piperidin-1-yl)phenyl)amino)pyrido[2,3-d]pyrimidin-7(8H)-one]",IC50,CDK1/CycE1; [6],2.97 µM
same,IC50,AKT1 aa1-480,> 50 µM
same,cell cycle arrest by DNA content,[1],induced G2/M arrest
same,IC50,PCTAIRE1/CycY,43.8 µM
same,IC50,CDK9/CycT1,0.918 µM
same,IC50,DYRK2,> 50 µM
same,IC50,CDK4/CycD1,0.15 µM
same,IC50,CDK1/CycB1; [6],4.69 µM
same,IC50,CDC7/DBF4,7.61 µM
same,GI50,"[2]; Homo sapiens, NCI-H460",1.6 µM
same,GI50,"[3]; Homo sapiens, MCF10",7.5 µM
same,GI50,[4]; [7],4.1 µM
same,GI50,[5]; [8],3.9 µM
same,IC50,CDK19/CycC,19.2 µM
same,IC50,CDK2/CycE1; [6],0.545 µM
same,IC50,DYRK1A,> 50 µM
"O=c1ccc2cnc(Nc3ccc(N4CCC(CCCO)CC4)cc3)nc2n1C1CC2CCC1C2 (stereo not shown) [PD-0183812, reference compound]",IC50,CDK1/CycE1,8.09 µM
same,IC50,AKT1 aa1-480,48 µM
same,cell cycle arrest by DNA content,[1],arrested cells with a 4N DNA content
same,IC50,PCTAIRE1/CycY,43.5 µM
same,IC50,CDK9/CycT1,0.484 µM
same,IC50,DYRK2,> 50 µM
same,IC50,CDK4/CycD1,0.0316 µM
same,IC50,CDK1/CycB1,32.1 µM
same,IC50,CDC7/DBF4,18.8 µM
same,GI50,[2],1.57 µM
same,GI50,[3],3.3 µM
same,GI50,"[4]; Table 3, 48 h, n = 3 independent experiments, read-out: GI50 U87MG",7.45 µM
same,GI50,"[5]; Table 3, 48 h, n = 3 independent experiments, read-out: GI50 MDA-MB231",2.15 µM
same,IC50,CDK19/CycC,17.4 µM
same,IC50,CDK2/CycE1,0.122 µM
same,IC50,DYRK1A,31.9 µM
"O=c1ccc2cnc(Nc3ccc(N4CCNCC4)cc3)nc2n1[C@@H]1CC2CCC1C2 (stereo partly drawn) [PS007, 8-((2R)-bicyclo[2.2.1]heptan-2-yl)-2-((4-(piperazin-1-yl)phenyl)amino)pyrido[2,3-d]pyrimidin-7(8H)-one]",IC50,CDK1/CycE1; [6],0.0408 µM
same,IC50,AKT1 aa1-480,11.6 µM
same,cell cycle arrest by DNA content,[1],accumulation of cells both in G1 and G2/M phases
same,cell death (sub-G1 accumulation),[1],led to cell death
same,IC50,PCTAIRE1/CycY,0.00404 µM
same,IC50,CDK9/CycT1,0.0136 µM
same,IC50,DYRK2,2.31 µM
same,IC50,CDK4/CycD1,< 0.0015 µM
same,IC50,CDK1/CycB1; [6],0.0973 µM
same,IC50,CDC7/DBF4,0.537 µM
same,GI50,"[2]; Homo sapiens, NCI-H460",0.16 µM
same,GI50,"[3]; Homo sapiens, MCF10",0.07 µM
same,GI50,[4]; [7],0.04 µM
same,GI50,[5]; [8],0.15 µM
same,IC50,CDK19/CycC,0.288 µM
same,IC50,CDK2/CycE1; [6],0.0078 µM
same,IC50,DYRK1A,1.18 µM

# From patent US20230042936A1, “PYRIDO[2,3-d]PYRIMIDIN-7(8H)-ONES AS CDK INHIBITORS” (PROSENESTAR LLC, priority 2020, published 2023)
